The values below come from article PMC6385122, “Design and Synthesis of Arylamidine Derivatives as Serotonin/Norepinephrine Dual Reuptake Inhibitors” (Molecules, 2019).

Series [1] deals with T1, 5-HT reuptake (5-HT transporter) (Rattus norvegicus, UniProt P31652).
T1 construct: from tissue; host or cells: Wistar rat brain (procerebrum; crude synaptosomal supernatant)
Description: Inhibition of 5-HT reuptake in rat brain synaptosome (3H-5-HT uptake). Format: biochemical. To be noted: for inhibition at 10 µM: read-out: 5-HT reuptake percent inhibition. How it is done: (§1) All the target compounds were evaluated for their inhibitory activity against the reuptake of 5-HT and NE at the cellular level. Rat brain tissue was used for the uptake test, which included ^3H-5-HT and ^3H-NE [15]. 1-[7,8-^3H]-Noradrenaline and 5-hydroxy-[^3H]-tryptamine trifluoroacetate were obtained from Amersham Corporation.
(§2) Adult male Wistar rats were used. Animals were killed by decapitation and the whole brain, with the exception of the brainstem and cerebellum, was quickly removed. The procerebrum region was prepared, weighed, and homogenized in 10 volumes of ice-cold 0.32 mol/L sucrose solution using a glass homogenizer. The homogenate was centrifuged at 1000× g and 4 °C for 10 min. The supernatant was decanted and used for the uptake experiments. […] For each assay, three tubes were incubated with the vehicle (20 µL) at 0 °C in an ice bath. After incubation, the tubes were immediately filtered with a cell harvester. The fiberglass filter membrane was washed three times with ice-cold saline, placed in a scintillation vial, and counted in liquid scintillation cocktail (4 mL). Active uptake was the difference between the counts per minute at 37 and 0 °C. The percent inhibition at each drug concentration was the mean of three measurements.

The target in series [2] is T2, NE reuptake (NE transporter) (Rattus norvegicus, UniProt Q63380).
T2 construct: from tissue; host or cells: Wistar rat brain (procerebrum; crude synaptosomal supernatant)
T2 sequence (Q63380 1-617): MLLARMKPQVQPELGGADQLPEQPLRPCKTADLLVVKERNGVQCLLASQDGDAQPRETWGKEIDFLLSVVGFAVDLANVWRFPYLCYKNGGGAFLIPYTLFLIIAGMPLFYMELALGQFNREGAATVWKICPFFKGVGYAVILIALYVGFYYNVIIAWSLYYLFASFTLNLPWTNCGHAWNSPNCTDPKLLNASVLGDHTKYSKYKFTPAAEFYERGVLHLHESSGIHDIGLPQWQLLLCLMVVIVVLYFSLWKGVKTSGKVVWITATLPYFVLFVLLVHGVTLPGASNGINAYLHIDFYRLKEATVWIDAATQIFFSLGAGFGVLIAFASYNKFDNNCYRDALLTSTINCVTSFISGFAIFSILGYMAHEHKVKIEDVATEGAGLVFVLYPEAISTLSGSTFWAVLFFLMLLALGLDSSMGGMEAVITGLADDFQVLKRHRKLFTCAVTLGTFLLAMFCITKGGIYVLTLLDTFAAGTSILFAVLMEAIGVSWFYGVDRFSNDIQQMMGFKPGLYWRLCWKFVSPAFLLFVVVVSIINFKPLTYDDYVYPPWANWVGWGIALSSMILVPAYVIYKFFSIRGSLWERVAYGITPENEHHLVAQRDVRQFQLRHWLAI
Description: Inhibition of NE reuptake in rat brain synaptosome (3H-NE uptake). The following applies: for inhibition at 10 µM: read-out: NE reuptake percent inhibition. The class given is biochemical. How it is done:
as §1, §2

In series [3] the test system is rats. Description: Tail suspension test (TST) in rats. Format: in vivo, rat. To be noted: male rats, 30 mg/kg PO; for Immobility Time: 60 min after administration; for Rate of Shorten Time (%): compared with the negative control group. The method, then: Based on the in vitro results, compounds I-19, II-4, and II-5 were selected for the tail suspension test (TST) in rats. The TST has been used widely as a preclinical model for screening antidepressant activity, and it is sensitive to commercially available antidepressant drugs. In the assay, rats are suspended by tail and the time that the animal is immobile is recorded. The compounds were administered to male rats at a dose of 30 mg/kg (PO). […] In addition, the safety profile of compound II-5 was also explored with a preliminary acute toxicity test in mice at a single dose of 200 or 400 mg/kg (PO) (n = 6).
For two days before the formal experiment, the rats in each group were given doses orally once a day in the morning and in the afternoon. The rats were given doses orally once in each group in the formal experiment. After 60 min of administration, the rats were suspended head-down more than 50 cm from the ground with a 12-cm-long piece of insulating tape at a distance of 1 cm from the tail tip. The distance between adjacent rats was 15 cm. The immobility time of the rats was recorded. The rate of change in the immobility time of the rats in the test drug group and the positive control group was calculated and compared with the negative control group. Statistical analysis was performed using Prism 7.0 (GraphPad Software, San Diego, CA, USA).

Series [4] can be described thus: Preliminary acute toxicity test in mice. The class given is in vivo. To be noted: male, ICR, mouse, in vivo; mice, PO, 20 h. How it is done: (§3) In the assay, rats are suspended by tail and the time that the animal is immobile is recorded. The compounds were administered to male rats at a dose of 30 mg/kg (PO).
(§4) Male ICR mice (20–25 g) were used from Institute of Materia Medica, Chinese Academy of Medical Sciences, Beijing, China. Mice were randomly divided into two groups with six mice each. Mice were orally given II-5 with a single dose 200 and 400 mg/kg or vehicle control, respectively. The mouse death was monitored for 20 h after treatment.

In series [5] the test system is mice. In words: Preliminary acute toxicity test in mice. The following applies: male ICR mice, n = 6. The class given is in vivo. The method, then: as §3, §4

Where a name gives a salt, the structure may show the parent alone.

T1 sequence (P31652 whole entry): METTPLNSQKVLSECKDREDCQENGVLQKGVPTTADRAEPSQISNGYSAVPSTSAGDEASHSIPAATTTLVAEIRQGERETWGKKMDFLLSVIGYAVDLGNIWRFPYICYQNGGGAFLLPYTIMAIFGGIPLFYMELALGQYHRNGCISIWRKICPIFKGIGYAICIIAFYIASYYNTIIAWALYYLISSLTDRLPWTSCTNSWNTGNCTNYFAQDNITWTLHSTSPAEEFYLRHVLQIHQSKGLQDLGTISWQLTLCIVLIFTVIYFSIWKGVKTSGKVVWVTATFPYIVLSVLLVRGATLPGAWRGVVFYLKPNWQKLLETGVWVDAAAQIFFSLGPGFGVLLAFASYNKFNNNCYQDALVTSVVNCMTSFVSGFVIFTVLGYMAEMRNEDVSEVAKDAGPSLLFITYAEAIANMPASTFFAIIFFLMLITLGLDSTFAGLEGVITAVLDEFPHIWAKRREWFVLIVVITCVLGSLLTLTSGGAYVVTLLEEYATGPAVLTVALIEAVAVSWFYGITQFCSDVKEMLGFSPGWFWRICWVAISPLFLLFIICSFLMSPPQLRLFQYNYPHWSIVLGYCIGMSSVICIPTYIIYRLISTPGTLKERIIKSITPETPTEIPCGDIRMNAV

Turning to `Cc1ccc(/C(=N\Cc2cccc3ccccc23)N2CCNCC2)cc1` (as salt: hydrochloride) [II-10, (E)-1-(Naphthalen-1-yl)-N-(piperazin-1-yl(p-tolyl)methylene)methanaminehydrochloride], the melting point (usually the temperature, or range, at which the solid turns liquid) was 178 to 180 °C.
For the compound `O=[N+]([O-])c1cccc2c(/C(=N\Cc3ccccc3)N3CCNCC3)cccc12` (as salt: hydrochloride) [III-1, (E)-N-((5-Nitronaphthalen-1-yl)(piperazin-1-yl)methylene)-1-phenylmethanaminehydrochloride], the melting point was in the range of 173 to 175 °C.
On to `COc1ccc(/C(=N\Cc2ccccc2)N2CCNCC2)cc1.Cl` [Compound I-1, (E)-N-((4-Methoxyphenyl)(piperazin-1-yl)methylene)-1-phenylmethanamine hydrochloride], for which the melting point was in the range of 195 to 197 °C. For the same compound, in series [1], the inhibition (as a rule, the share of the control response that was lost under treatment) at 10 µM came to 65%. Moreover, the inhibition at 10 µM in series [2] worked out at 67%.
Take `N#Cc1cccc(/C(=N\Cc2ccc(Cl)cc2)N2CCNCC2)c1` [Compound I-19, (E)-1-(4-Chlorophenyl)-N-((3-cyanophenyl)(piperazin-1-yl)methylene)methanaminehydrochloride]: in series [1], the IC50 – broadly, the concentration that gives 50% inhibition – stood at 0.83 µM and the inhibition at 10 µM was determined as 82%. Besides, in series [2], the IC50 worked out at 0.56 µM and the inhibition at 10 µM is 78%. Moreover, in series [3], the “Immobility Time” value turned out to be 34 ± 17 s and the “Rate of Shorten Time (%)” value was 37.8%.
`CNCC[C@H](Oc1cccc2ccccc12)c1cccs1` [Duloxetine, reference compound]: in series [3], the “Immobility Time” value stood at 11 ± 5 s and the “Rate of Shorten Time (%)” value was determined as 79.0%.
Regarding `Fc1ccccc1/C(=N\Cc1cccc2ccccc12)N1CCNCC1` [II-4, (E)-N-((2-Fluorophenyl)(piperazin-1-yl)methylene)-1-(naphthalen-1-yl)methanaminehydrochloride], in series [1], the IC50 came out at 0.13 µM and the inhibition at 10 µM is 90%. Besides, in series [2], the IC50 stood at 0.88 µM and the inhibition at 10 µM was 78%. In addition, in series [3], the “Immobility Time” value worked out at 33 ± 19 s and the “Rate of Shorten Time (%)” value turned out to be 39.7%.
On to `Clc1ccccc1/C(=N\Cc1cccc2ccccc12)N1CCNCC1` [II-5, (E)-N-((2-Chlorophenyl)(piperazin-1-yl)methylene)-1-(naphthalen-1-yl)methanaminehydrochloride], for which the LD50 (usually the dose at which mortality reaches 50%) at 20 h in series [4] was > 400 mg/kg. Moreover, in series [5] (single dose 200 mg/kg PO), the “Survival at 20 h” value turned out to be 100%. Also, the “Survival at 20 h” value in series [5] (single dose 400 mg/kg PO) is 100%. In series [1], the IC50 worked out at 0.62 µM and the inhibition at 10 µM was 81%. In addition, in series [2], the IC50 was 0.01 µM and the inhibition at 10 µM was found to be 92%. Also, in series [3], the “Immobility Time” value came out at 18 ± 7 s and the “Rate of Shorten Time (%)” value stood at 67.8%.
